According to patent publication US20250090516A1, “DRUG FOR TREATING AF[…] NOVEL CORONAVIRUS INFECTION” (THE JIKEI UNIVERSITY, priority 2022, published 2025):

Key:
Type in all cases: in vivo, C57BL/6 mice
[1] = tested on: gene expression of IL-1β and IL-6 in the brains of S1 mice; assay: RT-qPCR of inflammatory cytokine genes in brains of S1 mice after intracerebroventricular PNU282987; settings: PNU282987 400 nmol/mouse intracerebroventricularly on 7th day; brains collected one hour later; FIG. 14
[2] = tested on: gene expression of zinc finger protein 36 (Zfp36) in the brains of S1 mice; assay: RT-qPCR of Zfp36 in brains of S1 mice after PNU282987; settings: PNU282987 400 nmol/mouse intracerebroventricularly; cDNA of Example 10; FIG. 15
Method: Therefore, to the S1 mice and the control mice, on the 7th day after nasal administration of S1/Adv or vector/Adv, PNU282987, which is an agonist specific to the a7 nicotinic acetylcholine receptor, was administered intracerebroventricularly at a dose of 400 nmol/mouse, and the therapeutic effect on brain inflammation in the S1 mice was examined.
One hour after the intracerebroventricular administration of PNU282987, the brains excluding the olfactory bulbs were collected, and RNA was purified with the RNeasy Mini Kit (QIAGEN). The purified RNA was used as a template to synthesize cDNA with the PrimeScript RT reagent Kit (Takara-Bio Inc.). Using the synthesized cDNA, the gene expression of interleukin-1β (IL-1β) and interleukin-6 (IL-6) was analyzed by RT-qPCR. The measurement results of 18S rRNA were used for normalization.
To elucidate the molecular mechanism of the therapeutic effect of PNU282987 on brain inflammation in Example 10, the impact of S1 and […] on the gene expression level of zinc finger protein 36 (Zfp36), which is a host protein with anti-inflammatory effects, was examined. Specifically, using the synthesized cDNA in Example 10, the gene expression of Zfp36 was analyzed by RT-qPCR. The measurement results of 18S rRNA were used for normalization.

[3] = tested on: S1 mice (COVID-19 sequela model animals); assay: Tail suspension test (depressive disorder-like behavior) after donepezil; settings: donepezil 4.0 mg/kg/day via drinking water; 6th day after nasal S1/Adv; 10 minutes suspension; without donepezil, S1 mice significantly increased; FIG. 12
[4] = tested on: S1 mice (COVID-19 sequela model animals); assay: 10% weight-loaded forced swimming test (fatigue behavioral test) after donepezil; settings: donepezil 4.0 mg/kg/day via drinking water; 6th day after nasal S1/Adv; without donepezil, S1 mice significantly shorter; FIG. 11

SMILES | increased expression level of IL-1β gene in the brain of S1 mice [1] | increased expression level of IL-6 gene in the brain of S1 mice [1] | decrease in ZFP36 gene expression in S1 mice [2] | immobility time in the tail suspension test, S1 mice vs control mice [3] | swimming time, S1 mice vs control mice [4]
O=C(N[C@H]1CN2CCC1CC2)c1ccc(Cl)cc1 [PNU282987] | suppressed | suppressed | improved |  | 
COc1cc2c(cc1OC)C(=O)C(CC1CCN(Cc3ccccc3)CC1)C2.Cl (centres unmarked) [donepezil, 2-[(1-benzyl-4-piperidyl)methyl]-5,6-dimethoxyindan-1-one hydrochloride] |  |  |  | significantly decreased | no difference was observed
